Results from US20250236627A1, “CERTAIN OCTAHYDROFURO[3,4- B]PYRAZINES AS GLP-1 RECEPTOR MODULATORS” (ASTRAZENECA AB, priority 2021, published 2025).

Columns and labels:
[1] = target: T1, human phosphodiesterase-3A (Homo sapiens, UniProt Q14432); experiment: PDE3 Assay; format: biochemical; conditions: human recombinant enzyme expressed in Sf9 cells; formation of 5′AMP from cAMP
T1 construct: host or cells: Sf9 cells
Method: Evaluation of the effects of compounds on the activity of the human phosphodiesterase-3A is quantified by measuring the formation of 5′AMP from cAMP using a human recombinant enzyme expressed in Sf9 cells.
The test compound, reference compound or water (control) are added to a buffer containing 40 mM Tris/HCl (pH 7.4) and 8 mM MgCl2, 450 nM cAMP and 0.25 μCi [^3H]cAMP.
Thereafter, the reaction is initiated by addition of the enzyme (about 1 U) and the mixture is incubated for 20 min at 22° C.
For basal control measurements, the enzyme is omitted from the reaction mixture.
Following incubation SPA beads are added. After 30 min at 22° C. under shaking, the amount of [^3H]5′AMP is quantified with a scintillation counter (Topcount, Packard).
The results are expressed as a percent inhibition of the control enzyme activity. The standard inhibitory reference compound is milrinone (CAS number 78415-72-2), which is tested in each experiment at several concentrations to obtain an inhibition curve from which its IC50 value is calculated.

[2] = target: T2, endogenous human glucagon-like peptide 1 receptor (GLP-1R) (Homo sapiens, UniProt P43220); experiment: EndoC cAMP Accumulation Assay; format: cell-based; conditions: EndoC-βH1 human pancreatic β cell line; HTRF cAMP assay
T2 construct: endogenous human glucagon-like peptide 1 receptor (GLP-1R) in a pancreatic insulinoma cell line; host or cells: EndoC-βH1 human pancreatic β cell line
Method in brief: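 Thawed EndoC-βH1 cells (3000 per well) were stimulated for 30 min at room temperature in HBSS/25 mM HEPES pH 7.4, 0.1% BSA and 0.5 mM IBMX. cAMP was measured by HTRF competitive immunoassay after 1 h. Responses were fitted by 4-parameter logistic as % activation relative to maximal GIP (82.5 nM), with basal cAMP as zero.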

human GLP-1R receptor = target: T3, human GLP-1R receptor (Homo sapiens, UniProt P43220, L260F); experiment: CHOK1 GLP-1R cAMP Assay; format: cell-based; conditions: CHO-K1 cell line stably expressing human GLP-1R; HTRF cAMP detection
T3 construct: expressed in transfected cells; host or cells: CHO-K1 (ATCC CCL-61)
Method in brief: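 CHO-K1 cells, 800/well, stimulated 20 min at room temperature with compound in HEPES pH 7.4/HBSS/0.1% BSA plus IBMX (1 mM in the added buffer). cAMP measured by HTRF competitive immunoassay after ≥1 h, converted to pM via standard curve. EC50 from 4-parameter logistic fit; % effect relative to saturating GLP1(7-36)NH2.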

T2 sequence (P43220 24-463): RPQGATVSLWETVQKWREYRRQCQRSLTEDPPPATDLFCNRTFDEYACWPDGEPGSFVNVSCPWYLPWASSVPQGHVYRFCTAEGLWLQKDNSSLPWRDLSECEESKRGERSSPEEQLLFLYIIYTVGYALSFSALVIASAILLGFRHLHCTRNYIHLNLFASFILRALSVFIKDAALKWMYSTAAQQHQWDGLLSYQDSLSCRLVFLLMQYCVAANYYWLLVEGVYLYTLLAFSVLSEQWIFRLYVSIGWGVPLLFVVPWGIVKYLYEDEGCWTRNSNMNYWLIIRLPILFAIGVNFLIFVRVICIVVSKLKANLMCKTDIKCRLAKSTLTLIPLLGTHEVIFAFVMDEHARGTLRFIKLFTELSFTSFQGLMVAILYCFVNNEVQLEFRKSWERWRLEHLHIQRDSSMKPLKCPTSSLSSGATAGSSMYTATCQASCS
T3 sequence (P43220 24-463 L260F): as the sequence (P43220 24-463) above, with L237F counted along it
T1 sequence (Q14432 whole entry): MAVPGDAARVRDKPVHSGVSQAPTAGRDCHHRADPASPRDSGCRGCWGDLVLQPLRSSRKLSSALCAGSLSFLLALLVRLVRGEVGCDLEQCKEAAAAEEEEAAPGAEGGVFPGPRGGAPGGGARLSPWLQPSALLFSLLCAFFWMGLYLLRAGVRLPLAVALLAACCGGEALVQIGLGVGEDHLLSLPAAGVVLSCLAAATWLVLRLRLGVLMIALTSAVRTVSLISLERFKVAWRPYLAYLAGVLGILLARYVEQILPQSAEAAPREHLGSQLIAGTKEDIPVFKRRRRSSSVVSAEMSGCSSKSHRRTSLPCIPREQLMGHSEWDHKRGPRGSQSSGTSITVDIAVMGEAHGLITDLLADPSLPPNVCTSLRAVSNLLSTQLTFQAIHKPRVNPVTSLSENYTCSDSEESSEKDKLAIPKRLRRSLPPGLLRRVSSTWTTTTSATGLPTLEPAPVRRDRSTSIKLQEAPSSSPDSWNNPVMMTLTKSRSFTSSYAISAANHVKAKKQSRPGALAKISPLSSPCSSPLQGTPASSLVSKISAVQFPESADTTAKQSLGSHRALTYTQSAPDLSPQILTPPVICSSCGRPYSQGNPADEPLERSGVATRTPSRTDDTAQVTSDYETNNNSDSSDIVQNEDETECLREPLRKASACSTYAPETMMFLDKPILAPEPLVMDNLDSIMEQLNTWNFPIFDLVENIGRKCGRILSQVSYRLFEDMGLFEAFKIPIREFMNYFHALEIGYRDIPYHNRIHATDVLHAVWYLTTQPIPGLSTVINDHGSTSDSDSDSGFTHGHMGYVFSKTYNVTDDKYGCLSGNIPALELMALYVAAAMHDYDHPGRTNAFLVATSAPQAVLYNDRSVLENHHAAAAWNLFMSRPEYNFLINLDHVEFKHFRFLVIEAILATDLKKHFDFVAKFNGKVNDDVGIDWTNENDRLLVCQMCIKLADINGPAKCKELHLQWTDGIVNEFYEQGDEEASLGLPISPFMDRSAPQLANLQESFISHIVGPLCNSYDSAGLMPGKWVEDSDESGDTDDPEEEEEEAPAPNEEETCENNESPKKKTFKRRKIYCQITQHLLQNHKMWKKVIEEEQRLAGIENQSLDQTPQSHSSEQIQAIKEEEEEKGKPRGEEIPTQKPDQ

IC50 [1] [nM]	EC50 [2] [nM]	EC50 (human GLP-1R receptor) [nM]	Structure (SMILES)
> 100000	3.1	1.8	COc1cc(C(=O)O)cc2c1nc(CN1CCN(c3cccc4c3O[C@@](C)(c3ccc(Cl)cn3)O4)[C@@H]3COC[C@@H]31)n2C[C@@H]1CCO1 (relative stereo) [Example 1b, 2-((4aR*,7aS*)-4-((R*)-2-(5-Chloropyridin-2-yl)-2-methylbenzo[d][1,3]dioxol-4-yl)hexahydrofuro[3,4-b]pyrazin-1(2H)-yl)methyl)-4-methoxy-1-(((S)-oxetan-2-yl)methyl)-1H-benzo[d]imidazole-6-carboxylic acid]
	560	150	C[C@]1(c2ccc(Cl)cc2F)Oc2cccc(N3CCN(Cc4nc5c(Cl)cc(C(=O)O)cc5n4C[C@@H]4CCO4)[C@H]4COC[C@H]43)c2O1 (single isomer, unassigned) [Example 15c, 4-Chloro-2-(((4aR*,7aS*)-4-((R*)-2-(4-chloro-2-fluorophenyl)-2-methylbenzo[d][1,3]dioxol-4-yl)hexahydrofuro[3,4-b]pyrazin-1(2H)-yl)methyl)-1-(((S)-oxetan-2-yl)methyl)-1H-benzo[d]imidazole-6-carboxylic acid]
	160	190	C[C@]1(c2ccc(Cl)cc2F)Oc2cccc(N3CCN(Cc4nc5c(Cl)cc(C(=O)O)cc5n4C[C@@H]4CCO4)[C@H]4COC[C@H]43)c2O1 (single isomer, unassigned) [Example 15d, 4-Chloro-2-(((4aR*,7aS*)-4-((R*)-2-(4-chloro-2-fluorophenyl)-2-methylbenzo[d][1,3]dioxol-4-yl)hexahydrofuro[3,4-b]pyrazin-1(2H)-yl)methyl)-1-(((S)-oxetan-2-yl)methyl)-1H-benzo[d]imidazole-6-carboxylic acid]
	2.3	1.2	C[C@]1(c2ccc(Cl)cc2F)Oc2cccc(N3CCN(Cc4nc5c(F)cc(C(=O)O)cc5n4C[C@@H]4CCO4)[C@H]4COC[C@H]43)c2O1 (single isomer, unassigned) [Example 16a, 2-(((4aR*,7aS*)-4-((R*)-2-(4-Chloro-2-fluorophenyl)-2-methylbenzo[d][1,3]dioxol-4-yl)hexahydrofuro[3,4-b]pyrazin-1(2H)-yl)methyl)-4-fluoro-1-(((S)-oxetan-2-yl)methyl)-1H-benzo[d]imidazole-6-carboxylic acid]
	270	120	C[C@]1(c2ccc(Cl)cc2F)Oc2cccc(N3CCN(Cc4nc5c(F)cc(C(=O)O)cc5n4C[C@@H]4CCO4)[C@H]4COC[C@H]43)c2O1 (single isomer, unassigned) [Example 16b, 2-(((4aR*,7aS*)-4-((R*)-2-(4-Chloro-2-fluorophenyl)-2-methylbenzo[d][1,3]dioxol-4-yl)hexahydrofuro[3,4-b]pyrazin-1(2H)-yl)methyl)-4-fluoro-1-(((S)-oxetan-2-yl)methyl)-1H-benzo[d]imidazole-6-carboxylic acid]
	440	170	C[C@]1(c2ccc(Cl)cc2F)Oc2cccc(N3CCN(Cc4nc5c(F)cc(C(=O)O)cc5n4C[C@@H]4CCO4)[C@H]4COC[C@H]43)c2O1 (single isomer, unassigned) [Example 16c, 2-(((4aR*,7aS*)-4-((R*)-2-(4-Chloro-2-fluorophenyl)-2-methylbenzo[d][1,3]dioxol-4-yl)hexahydrofuro[3,4-b]pyrazin-1(2H)-yl)methyl)-4-fluoro-1-(((S)-oxetan-2-yl)methyl)-1H-benzo[d]imidazole-6-carboxylic acid]
	270	160	C[C@]1(c2ccc(Cl)cc2F)Oc2cccc(N3CCN(Cc4nc5c(F)cc(C(=O)O)cc5n4C[C@@H]4CCO4)[C@H]4COC[C@H]43)c2O1 (single isomer, unassigned) [Example 16d, 2-(((4aR*,7aS*)-4-((R*)-2-(4-Chloro-2-fluorophenyl)-2-methylbenzo[d][1,3]dioxol-4-yl)hexahydrofuro[3,4-b]pyrazin-1(2H)-yl)methyl)-4-fluoro-1-(((S)-oxetan-2-yl)methyl)-1H-benzo[d]imidazole-6-carboxylic acid]
	4.5	14	Cc1nccn1CCn1c(CN2CCN(c3cccc4c3O[C@@](C)(c3ccc(Cl)cc3F)O4)[C@@H]3COC[C@@H]32)nc2c(F)cc(C(=O)O)cc21 (single isomer, unassigned) [Example 17]
	6.1	26	Cc1nccn1CCn1c(CN2CCN(c3cccc4c3O[C@@](C)(c3ccc(Cl)cc3F)O4)[C@@H]3COC[C@@H]32)nc2c(Cl)cc(C(=O)O)cc21 (single isomer, unassigned) [Example 18]
	7.4	25	C[C@]1(c2ccc(Cl)cc2F)Oc2cccc(N3CCN(Cc4nc5c(Cl)cc(C(=O)O)cc5n4Cc4cocn4)[C@H]4COC[C@H]43)c2O1 (single isomer, unassigned) [Example 19]
	410	150	C[C@]1(c2ccc(Cl)cc2F)Oc2cccc(N3CCN(Cc4nc5c(F)cc(C(=O)O)cc5n4Cc4cocn4)[C@H]4COC[C@H]43)c2O1 (single isomer, unassigned) [Example 20a]
	10	7.2	C[C@]1(c2ccc(Cl)cc2F)Oc2cccc(N3CCN(Cc4nc5c(F)cc(C(=O)O)cc5n4Cc4cocn4)[C@H]4COC[C@H]43)c2O1 (single isomer, unassigned) [Example 20b]
	240	170	C[C@]1(c2ccc(Cl)cn2)Oc2cccc(N3CCN(Cc4nc5c(F)cc(C(=O)O)cc5n4CC4(C#N)CC4)[C@H]4COC[C@H]43)c2O1 (single isomer, unassigned) [Example 22b]
	580	140	C[C@]1(c2ccc(Cl)cn2)Oc2cccc(N3CCN(Cc4nc5c(F)cc(C(=O)O)cc5n4CC4(C#N)CC4)[C@H]4COC[C@H]43)c2O1 (single isomer, unassigned) [Example 22c]
	190	77	C[C@]1(c2ccc(Cl)cn2)Oc2cccc(N3CCN(Cc4nc5c(Cl)cc(C(=O)O)cc5n4CC4(C#N)CC4)[C@H]4COC[C@H]43)c2O1 (single isomer, unassigned) [Example 23b]
	4.3	3.1	C[C@]1(c2ccc(Cl)cn2)Oc2cccc(N3CCN(Cc4nc5c(Cl)cc(C(=O)O)cc5n4CC4(CC#N)CC4)[C@H]4COC[C@H]43)c2O1 (single isomer, unassigned) [Example 24]
	11	3.6	C[C@]1(c2ccc(Cl)cn2)Oc2cccc(N3CCN(Cc4nc5ccc(C(=O)O)cc5n4CC4(C#N)CC4)[C@H]4COC[C@H]43)c2O1 (single isomer, unassigned) [Example 26]
	20	81	C[C@]1(c2ccc(Cl)cn2)Oc2cccc(N3CCN(Cc4nc5c(Cl)cc(C(=O)O)cc5n4CCn4cccn4)[C@H]4COC[C@H]43)c2O1 (single isomer, unassigned) [Example 27]
11000			N#Cc1ccc(COc2cccc(C3CCN(Cc4nc5ccc(C(=O)O)cc5n4C[C@@H]4CCO4)CC3)n2)c(F)c1 [Ref Comp B, reference compound]
